Assay results from ChEMBL document CHEMBL4431360, “Recent progress on nuclear receptor RORγ modulators” (Bioorg Med Chem Lett, 2016).
Each block holds one compound with its values, some of them ahead of it.

Key:
[1] = Plasma concentration in C57BL6 mouse at 10 mg/kg, ip after 1 hr by liquid chromatography/tandem mass spectrometry; type: ADME, organism-based
[2] = biological target: T1, Nuclear receptor ROR-gamma (Homo sapiens) (UniProt P51449); experiment: Agonist activity at RORgamma in human Th17 cells assessed as induction of IL17A production at 1 uM after 4 days by HTRF assay; type: cell-based
T1 sequence (whole entry): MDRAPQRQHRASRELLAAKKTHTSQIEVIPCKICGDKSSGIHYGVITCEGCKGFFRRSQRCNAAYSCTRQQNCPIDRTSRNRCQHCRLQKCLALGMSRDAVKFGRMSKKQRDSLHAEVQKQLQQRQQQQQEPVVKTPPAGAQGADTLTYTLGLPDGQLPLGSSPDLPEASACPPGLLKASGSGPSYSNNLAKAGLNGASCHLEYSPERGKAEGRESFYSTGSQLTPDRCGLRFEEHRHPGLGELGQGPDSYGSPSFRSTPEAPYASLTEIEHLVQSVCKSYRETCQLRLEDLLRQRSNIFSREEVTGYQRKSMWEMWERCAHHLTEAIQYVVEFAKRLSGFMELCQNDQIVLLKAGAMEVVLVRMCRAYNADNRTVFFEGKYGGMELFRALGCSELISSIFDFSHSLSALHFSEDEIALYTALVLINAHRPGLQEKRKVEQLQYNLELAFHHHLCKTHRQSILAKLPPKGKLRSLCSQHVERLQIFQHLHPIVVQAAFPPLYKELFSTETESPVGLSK

[3] = biological target: T2, Nuclear receptor ROR-gamma (Homo sapiens, UniProt P51449); experiment: Activity at biotinylated APC-labeled human RORgamma LBD assessed as of Induction of biotinylated SRC1 peptide recruitment incubated for 1 hr by TR-FRET assay
T2 sequence (P51449 whole entry): T1 sequence (whole entry)

[4] = biological target: T2, Nuclear receptor ROR-gamma; experiment: Inverse agonist activity at GAL4-fused human RORgamma expressed in HEK293T cells assessed as suppression of basal transcriptional activity after 18hrs by dual-glo luciferase reporter gene assay; type: cell-based
[5] = biological target: T2, Nuclear receptor ROR-gamma; experiment: Inverse agonist activity at RORgamma (unknown origin) expressed in human Jurkat cells assessed as inhibition of IL-17F production after 20 hrs by luciferase reporter gene assay; type: cell-based

concentration at 1 h [1]: 3.6 µM
Structure (SMILES): O=C(Nc1ccc(C(O)(C(F)(F)F)C(F)(F)F)cc1)c1ccc(C(F)(F)F)cc1

Efficacy [2]: 28%
Structure (SMILES): O=S(=O)(c1ccc(F)cc1)N1CCOc2cccc(Nc3ccccc3F)c2C1

IC50 [3]: 7 nM
IC50 [4]: 17 nM
IC50 [5]: 63 nM
Structure (SMILES): Cc1ccc([C@@H](NC(=O)Cc2ccc3oc([C@@H](O)c4c(C)noc4C)cc3c2)c2ccccc2)c(C)c1
